# Reference: patent US20180238860A1, “INDIVIDUAL METHOD PREDICTIVE OF THE DNA-BREAKING GENOTOXIC EFFECTS OF CHEMICAL OR BIOCHEMICAL AGENTS” (priority 2015, published 2018)
# How the values were obtained:
# humans exposed = details: cited from earlier work
# [1] = system: pH2AX nuclear foci (DNA double-strand breaks); test: Single toxicity scale: reference concentration Cref and risk group prediction from NpH2AX(24 h); format: cell-based, human; details: for Reference concentration Cref: NpH2AX(24 h) < 2; for Prediction based on algorithm: concentration above which “Group III” risk: NpH2AX(24 h) > 8
# Method: (i) if the reference concentration has not previously been determined by the chemical or biochemical agent to be studied, a cell sample is prepared by dispersion and/or amplification of so-called reference cells (sensitivity group I); a plurality of concentrations within a broad concentration range of said breaking agent (said concentration range ranging for example from nM to mM) is applied for a predetermined period of time (preferably 24 hours) on this cell sample; pH2AX immunofluorescence is performed with DAPI counterstaining which also enables on the same cell sample the analysis of micronuclei for all the concentrations applied.
# (ii) Either the mean number of nuclear foci observed with the marker pH2AX at the observation times t and at the concentration C (this mean number being referred to as NpH2AX(t, C)), or the mean number of micronuclei per 100 cells at the observation times t and at the concentration C (this mean number being referred to as NMN(t, C)), or the standard error a corresponding to the error committed on these respective measurements which must be performed on at least 50 nuclei once (Gaussian standard error) or 3 independent experiments of 50 nuclei (standard error of the mean).
# (iii) The so-called reference concentration Cref is the concentration giving:
# NpH2AX(24 h,Cref)+2σ=2 or indeed NMN(24 h,Cref)+2σ=2%;
# If for the cell sample NpH2AX(24 h, Cref)<=2 or NMN(24 h, Cref)<=0.5%, preferably NMN(24 h, Cref)<=1% or even more preferentially NMN(24 h, Cref)<=2%, then the genotoxic risk is considered to be low or described as “Group I”
# The experimental data presented in table 4 above were used to determine the reference concentration Cref particularly for Pb(NO3)2 (Cref<1 μM) and CdCl2 (Cref=10 μM).
# Table 5 presents numerical examples of correspondence between the single toxicity scale according to the invention and the corresponding clinical signs.
# HMEC cells [2] = test: pH2AX foci 24 h after contacting, Table 4 lower part (HMEC endothelial cells); format: cell-based, human; details: line cell blank (below Hasp), 24 hours after contacting
# Method: (§1) In one embodiment, on receipt, the tissue sample (typically the biopsy) is established in the form of an amplifiable cell line without a viral or chemical transformation agent according to an ancillary procedure well known to culture laboratories, as underlined by the publication of Elkind et al. “The radiobiology of cultured mammalian cell”, Gordon and Breach (1967). Once the number of cells is sufficient (typically after 1 to 3 weeks), the first experiments are carried out using the process according to the invention. A cell sample is prepared: The cells are inoculated on glass coverslips in Petri dishes. A portion of these coverslips are contaminated with metals or pesticides or any other DNA-breaking chemical or biochemical agent at different concentrations. A further portion is not contaminated; it represents the spontaneous state. During contamination, the cells remain in the culture incubator at 37° C.
# For the contaminated cells, characteristics are acquired corresponding to the state after an incubation time with the DNA-breaking chemical or biochemical agent. Said characteristics are represented by foci corresponding to the marker pH2AX. The cells on glass coverslips are then fixed, lysed and hybridized. The following procedure, known per se (Bodgi et al, “A single formula to describe radiation-induced protein relocalization: towards a mathematical definition of individual radiosensitivity”, J Theor Biol. 21 p 333:135-45.2013):
# (§2) the cells are fixed in 3% paraformaldehyde and 2% sucrose for 15 minutes at ambient temperature and permeabilized in 20 mM HEPES buffer solution (4-(2-hydroxyethyl)-1-piperazine ethane sulfonic acid) at pH 7.4, 50 mM NaCl, 3 mM MgCl2, 300 mM sucrose, 0.5% Triton X-100 (a non-ionic surfactant having the formula t-Oct-C6H4-(OCH2CH2)×OH where x=9-10, CAS No. 9002-93-1, supplied for example by Sigma Aldrich) for 3 minutes. The glass coverslips are then washed in phosphate buffer saline (known as the acronym PBS) before immunological staining. The incubation took place for 40 min at 37° C. in PBS supplemented with 2% bovine serum albumin (known as the acronym BSA or fraction V, supplied for example by Sigma Aldrich) and was followed by a wash with PBS. Anti-pH2AX primary antibodies are used at a concentration of 1:800. The incubations with anti-mouse FITC or anti-rabbit TRITC secondary antibodies (1:100, supplied by Sigma Aldrich) were performed at 37° C. in 2% BSA for 20 minutes. Glass coverslips were treated with Vectashield™ containing DAPI (4,6-Diamidino-2-phenylindole) to label the nucleus. Staining with DAPI also makes it possible, indirectly, to determine the number of cells in phase G1 (nuclei with homogenous DAPI staining), in phase S (nuclei with numerous pH2AX foci), in phase G2 (nuclei with heterogeneous DAPI staining) and metaphases (visible chromosomes).
# The results are acquired using these coverslips on an immunofluorescence microscope (Olympus model for example). The reading may be direct (typically by counting the foci on at least 50 cells in G0/G1 for each point) or using dedicated image analysis software, or on an automated microscope; preferably the software or automated microscope methods are calibrated with manual determinations.
# (§3) The tables hereinafter summarize the results of numerous experiments which were carried out as described in the “Detailed description” section above.
# (§4) In tables 3 and 4, “pH2AX” corresponds to the mean number of nuclear foci obtained with the marker pH2AX, 24 hours after contacting the cell sample with the chemical agent at the concentration C (NpH2AX(24 h, C)), and where “Micronuclei” corresponds to the mean number of micronuclei observed per 100 cells 24 hours after contacting the cell sample with the chemical agent at the concentration C(NMN(24 h, C)).
# HMEC cells [3] = test: Micronuclei per 100 cells 24 h after contacting, Table 4 lower part (HMEC); format: cell-based, human; details: line cell blank (below Hasp)
# Method: as §1, §2
# Counterstaining with DAPI (a DNA marker known to those skilled in the art) makes it possible to locate the nucleus to situate the cytoplasmic or nuclear location to quantify the micronuclei, which are complementary cell markers to the data on the foci.
# as §3, §4
SMILES,"Cases of poisoning, concentration in tap water (estimated) (humans exposed; Hinkley USA)","Cases of poisoning, concentration in well water (humans exposed; Hinkley USA) [g/L]","Cases of poisoning, concentration in well water, equivalent (humans exposed; Hinkley USA) [mM]",Reference concentration Cref [1] [µM],Prediction based on algorithm: concentration above which “Group III” risk [1],pH2AX (HMEC cells [2]; 10 μM) [foci],pH2AX (HMEC cells [2]; 30 μM) [foci],pH2AX (HMEC cells [2]; 100 μM) [foci],pH2AX (HMEC cells [2]; 300 μM) [foci],"Onset of signs of saturnism, concentration in blood (humans exposed; clinical effects observed)","Onset of signs of saturnism, corresponding concentration (humans exposed; clinical effects observed, corresponding to 100 μg/l of blood)",Reference concentration Cref ([1]; determined from data of table 4) [µM],"Reference concentration Cref ([1]; determined from data of table 4, listed as Lead) [µM]",Micronuclei (HMEC cells [3]; 10 μM) [per 100 cells],Micronuclei (HMEC cells [3]; 30 μM) [per 100 cells],Micronuclei (HMEC cells [3]; 100 μM) [per 100 cells],Micronuclei (HMEC cells [3]; 300 μM) [per 100 cells],Micronuclei (HMEC cells [3]; 1000 μM) [per 100 cells]
"[Na+].[Na+].[O]=[Cr](=[O])([O-])[O-] [Chromium, Na2CrO4]",concentration in tap water was estimated at 23 Nm,1.19,4.6,0.003,predicted above 30 nM,,,,,,,,,,,,,
O=[N+]([O-])[O-].O=[N+]([O-])[O-].[Pb+2] [Pb(NO3)2],,,,,> 30 µM,4,7.5,15,21,Onset of signs of saturnism above 100 μg/l of μg/l of blood,blood corresponding to approximately 2 μM,< 1,<1,0,7,12,20,10
